The source of these data is ChEMBL document CHEMBL1909046, “DrugMatrix in vitro pharmacology data”.

Data set [1] concerns the target Beta-2 adrenergic receptor (Homo sapiens, UniProt P07550). Put plainly: DRUGMATRIX: Adrenergic beta2 radioligand binding (ligand: [3H] CGP-12177). It counts as cell membranes, CHO, Membrane. Particulars: cho; Not Active = under 50% inhibition at 10 µM.
The nature of data set [2]: DRUGMATRIX: Phorbol Ester radioligand binding (ligand: [3H] PDBu). In kind it is cell membranes, Mus musculus, ICR, Brain, Membrane. The following applies: Not Active = under 50% inhibition at 10 µM.
For data set [3], the target named is Beta-1 adrenergic receptor (Homo sapiens, UniProt P08588). Put plainly: DRUGMATRIX: Adrenergic beta1 radioligand binding (ligand: [125I] Cyanopindolol). It counts as cell membranes, CHO-K1, Membrane. Particulars: cho-k1; Not Active = under 50% inhibition at 10 µM.
Sequence of Beta-1 adrenergic receptor (P08588 whole entry): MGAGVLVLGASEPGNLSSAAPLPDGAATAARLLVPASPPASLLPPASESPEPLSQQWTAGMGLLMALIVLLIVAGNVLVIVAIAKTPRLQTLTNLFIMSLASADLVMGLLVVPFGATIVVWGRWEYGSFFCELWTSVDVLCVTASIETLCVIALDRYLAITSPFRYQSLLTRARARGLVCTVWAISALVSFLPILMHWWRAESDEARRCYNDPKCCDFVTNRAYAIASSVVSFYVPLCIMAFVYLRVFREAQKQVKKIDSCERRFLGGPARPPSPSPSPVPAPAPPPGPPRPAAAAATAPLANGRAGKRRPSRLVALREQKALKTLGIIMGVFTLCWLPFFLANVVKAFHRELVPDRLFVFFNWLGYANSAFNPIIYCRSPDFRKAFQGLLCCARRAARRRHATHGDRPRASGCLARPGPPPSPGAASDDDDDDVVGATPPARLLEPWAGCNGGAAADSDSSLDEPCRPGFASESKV
Data set [4] can be described thus: DRUGMATRIX: Tumor Necrosis Factor (TNF), Non-Selective radioligand binding (ligand: [125I] TNF-alpha). In kind it is cell membranes, Membrane. Particulars: u-937; Not Active = under 50% inhibition at 10 µM.
Data set [5] deals with T1, Interstitial collagenase (Homo sapiens, UniProt P03956).
T1 sequence (P03956 whole entry): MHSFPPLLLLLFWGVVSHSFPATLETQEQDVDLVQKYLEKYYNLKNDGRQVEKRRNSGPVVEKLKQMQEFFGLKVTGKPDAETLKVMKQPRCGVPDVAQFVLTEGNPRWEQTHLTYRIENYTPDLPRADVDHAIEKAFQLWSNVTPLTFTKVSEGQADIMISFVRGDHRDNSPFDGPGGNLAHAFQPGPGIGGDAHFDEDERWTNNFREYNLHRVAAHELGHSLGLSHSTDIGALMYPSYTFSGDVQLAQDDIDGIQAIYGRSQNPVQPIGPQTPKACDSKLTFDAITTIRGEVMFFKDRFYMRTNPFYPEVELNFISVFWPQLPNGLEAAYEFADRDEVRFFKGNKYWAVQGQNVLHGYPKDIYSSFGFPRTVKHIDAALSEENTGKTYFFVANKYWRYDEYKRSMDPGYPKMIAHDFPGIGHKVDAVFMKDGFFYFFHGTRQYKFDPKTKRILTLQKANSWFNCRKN
The data set can be described thus: biochemical. In kind it is tissue-based, Rheumatoid synovial fibroblasts.

Data set [6] concerns the target T2, 5-hydroxytryptamine receptor 1A (Rattus norvegicus, UniProt P19327). Note: in other assays of this panel Not Active means under 50% inhibition at 10 µM.
T2 sequence (P19327 whole entry): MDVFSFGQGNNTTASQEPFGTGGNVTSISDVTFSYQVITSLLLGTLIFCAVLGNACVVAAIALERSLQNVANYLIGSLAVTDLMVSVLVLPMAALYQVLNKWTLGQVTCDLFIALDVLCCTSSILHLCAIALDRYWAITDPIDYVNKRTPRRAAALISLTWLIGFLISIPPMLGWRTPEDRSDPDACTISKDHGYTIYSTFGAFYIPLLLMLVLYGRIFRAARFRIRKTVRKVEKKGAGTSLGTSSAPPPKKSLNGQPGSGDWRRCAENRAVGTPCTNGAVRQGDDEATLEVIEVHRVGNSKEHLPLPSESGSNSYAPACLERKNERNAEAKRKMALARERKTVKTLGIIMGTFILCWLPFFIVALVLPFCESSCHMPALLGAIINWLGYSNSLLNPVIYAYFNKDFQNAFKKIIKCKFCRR
In kind it is cell membranes, CHO-K1, Membrane.

The target of data set [7] is T3, Nitric oxide synthase, inducible (Mus musculus, UniProt P29477).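 Note: inhibition of iNOS enzyme activity measured with L-arginine as substrate; in other assays of this panel Not Active means under 50% inhibition at 10 µM.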
T3 sequence (P29477 whole entry): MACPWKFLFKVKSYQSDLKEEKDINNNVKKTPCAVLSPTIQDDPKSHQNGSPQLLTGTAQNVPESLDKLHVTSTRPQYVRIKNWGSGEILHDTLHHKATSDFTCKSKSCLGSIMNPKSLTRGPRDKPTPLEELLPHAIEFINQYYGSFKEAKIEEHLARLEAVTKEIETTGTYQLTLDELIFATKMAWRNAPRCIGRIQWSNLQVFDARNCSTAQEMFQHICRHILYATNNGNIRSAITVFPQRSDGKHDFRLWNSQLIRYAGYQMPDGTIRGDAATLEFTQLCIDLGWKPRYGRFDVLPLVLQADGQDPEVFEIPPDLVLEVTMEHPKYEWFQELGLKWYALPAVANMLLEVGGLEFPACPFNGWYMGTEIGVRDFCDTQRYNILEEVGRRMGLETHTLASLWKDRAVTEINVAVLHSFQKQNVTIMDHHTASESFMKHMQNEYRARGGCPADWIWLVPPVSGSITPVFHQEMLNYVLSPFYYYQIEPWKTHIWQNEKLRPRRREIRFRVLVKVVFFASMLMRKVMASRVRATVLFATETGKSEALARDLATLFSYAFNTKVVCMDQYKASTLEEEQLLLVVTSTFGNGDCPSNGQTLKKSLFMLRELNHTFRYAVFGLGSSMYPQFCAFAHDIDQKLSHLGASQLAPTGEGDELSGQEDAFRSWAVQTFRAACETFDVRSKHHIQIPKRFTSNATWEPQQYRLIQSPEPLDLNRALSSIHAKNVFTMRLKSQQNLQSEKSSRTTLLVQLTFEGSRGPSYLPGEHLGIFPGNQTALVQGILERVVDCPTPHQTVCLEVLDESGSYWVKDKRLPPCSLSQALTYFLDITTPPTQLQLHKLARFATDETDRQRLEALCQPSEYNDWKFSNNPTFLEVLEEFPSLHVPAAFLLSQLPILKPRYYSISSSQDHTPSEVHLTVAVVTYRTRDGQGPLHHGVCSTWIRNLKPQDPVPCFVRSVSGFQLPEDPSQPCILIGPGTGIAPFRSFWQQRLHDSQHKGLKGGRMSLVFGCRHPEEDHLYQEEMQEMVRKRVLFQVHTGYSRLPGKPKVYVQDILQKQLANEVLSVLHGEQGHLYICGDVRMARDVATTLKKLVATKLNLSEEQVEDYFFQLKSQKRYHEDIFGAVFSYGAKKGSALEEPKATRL
The arrangement: species or system Escherichia coli.

In data set [8] the target is Voltage-gated inwardly rectifying potassium channel KCNH2 (Homo sapiens, UniProt Q12809). Particulars: hek293. Note: in other assays of this panel Not Active means under 50% inhibition at 10 µM.
Sequence of Voltage-gated inwardly rectifying potassium channel KCNH2 (Q12809 whole entry): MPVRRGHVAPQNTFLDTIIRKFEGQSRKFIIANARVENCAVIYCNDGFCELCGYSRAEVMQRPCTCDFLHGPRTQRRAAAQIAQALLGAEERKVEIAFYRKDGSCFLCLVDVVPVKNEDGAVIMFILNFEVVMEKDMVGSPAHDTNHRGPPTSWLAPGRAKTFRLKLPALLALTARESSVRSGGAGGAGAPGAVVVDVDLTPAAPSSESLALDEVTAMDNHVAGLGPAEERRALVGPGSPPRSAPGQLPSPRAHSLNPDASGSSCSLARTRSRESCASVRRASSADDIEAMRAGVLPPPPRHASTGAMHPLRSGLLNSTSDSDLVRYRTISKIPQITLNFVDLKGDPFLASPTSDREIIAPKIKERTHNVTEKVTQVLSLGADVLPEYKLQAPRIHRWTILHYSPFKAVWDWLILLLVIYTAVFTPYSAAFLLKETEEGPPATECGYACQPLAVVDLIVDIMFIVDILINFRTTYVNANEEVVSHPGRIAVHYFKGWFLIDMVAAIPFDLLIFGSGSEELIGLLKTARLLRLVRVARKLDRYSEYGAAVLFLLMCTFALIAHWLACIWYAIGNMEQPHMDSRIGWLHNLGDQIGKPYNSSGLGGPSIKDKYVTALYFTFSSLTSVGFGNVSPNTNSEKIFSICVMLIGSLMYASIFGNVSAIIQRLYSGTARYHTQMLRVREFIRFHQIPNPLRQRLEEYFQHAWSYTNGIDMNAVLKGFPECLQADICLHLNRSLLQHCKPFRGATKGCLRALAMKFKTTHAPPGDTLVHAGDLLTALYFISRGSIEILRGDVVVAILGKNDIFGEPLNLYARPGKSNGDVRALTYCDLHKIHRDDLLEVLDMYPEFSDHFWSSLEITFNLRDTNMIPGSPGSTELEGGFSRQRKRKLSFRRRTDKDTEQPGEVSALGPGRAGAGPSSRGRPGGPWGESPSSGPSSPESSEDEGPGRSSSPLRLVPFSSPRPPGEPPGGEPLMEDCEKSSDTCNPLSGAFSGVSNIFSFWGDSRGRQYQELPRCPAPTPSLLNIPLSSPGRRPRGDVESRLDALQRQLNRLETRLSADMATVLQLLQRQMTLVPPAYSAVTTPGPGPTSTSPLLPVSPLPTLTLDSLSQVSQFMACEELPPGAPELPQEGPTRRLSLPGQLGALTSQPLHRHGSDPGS

Sequence of Beta-2 adrenergic receptor (P07550 whole entry): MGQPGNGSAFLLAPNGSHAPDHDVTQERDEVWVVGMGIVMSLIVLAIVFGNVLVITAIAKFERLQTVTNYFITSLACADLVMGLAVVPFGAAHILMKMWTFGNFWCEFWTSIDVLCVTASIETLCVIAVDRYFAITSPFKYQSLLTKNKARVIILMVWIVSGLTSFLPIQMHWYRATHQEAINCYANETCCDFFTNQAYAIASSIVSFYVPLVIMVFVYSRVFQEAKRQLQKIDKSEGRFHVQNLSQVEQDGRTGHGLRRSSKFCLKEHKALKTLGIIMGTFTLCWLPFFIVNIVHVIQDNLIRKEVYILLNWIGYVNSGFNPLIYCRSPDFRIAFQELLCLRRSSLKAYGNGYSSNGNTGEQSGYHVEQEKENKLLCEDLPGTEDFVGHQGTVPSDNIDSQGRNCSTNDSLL

On to `N#Cc1ccc(C(c2ccc(C#N)cc2)n2cncn2)cc1` [LETROZOLE], for which the 50% inhibitory concentration (IC50) result in data set [1], in data set [2], in data set [3], in data set [4], in data set [5] and in data set [6] (cho-k1) was “Not Active” each time. The concentration for half-maximal inhibition (IC50) result in data set [7] and in data set [8] was “Not Active” throughout. For the same compound, the inhibition constant (Ki) entry in data set [2], in data set [4] and in data set [8] was “Not Active” throughout.
Take `CCN1CCC[C@H]1CNC(=O)c1cc(S(N)(=O)=O)ccc1OC` [LEVOSULPIRIDE]: the IC50 result in data set [1], in data set [2], in data set [3], in data set [4], in data set [5] and in data set [6] (cho-k1) was “Not Active” throughout. For the same compound, the IC50 result in data set [7] and in data set [8] was “Not Active” in each case. The inhibitory constant (Ki) result in data set [2], in data set [4] and in data set [8] was “Not Active” in each case.
`O=C1Nc2ccc(Cl)cc2C(c2ccccc2Cl)=NC1O` (configuration not stated) [LORAZEPAM]: the IC50 entry in data set [1], in data set [2], in data set [3], in data set [4], in data set [5] and in data set [6] (cho-k1) was “Not Active” in each case. The IC50 result in data set [7] and in data set [8] was “Not Active” in each case. Besides, the inhibition constant (Ki) result in data set [2], in data set [4] and in data set [8] was “Not Active” throughout.
For the compound `CO[C@@H]1[C@@H](OC)[C@H](C)[C@@](O)(CC(=O)O)O[C@H]1[C@H](C)[C@H]1O[C@@]2(CC[C@@](C)([C@H]3CC[C@@](C)([C@@H]4O[C@@H]([C@H]5O[C@](C)(O)[C@H](C)C[C@@H]5C)C[C@@H]4O[C@@H]4C[C@H](OC)[C@@H](OC)[C@H](C)O4)O3)O2)C[C@H](O)[C@H]1C` [MADURAMICIN ACID], the IC50 entry in data set [1] is “Not Active”; in data set [2], “Not Active”; in data set [3], “Not Active”; in data set [4] it was “Not Active”; in data set [5], “Not Active”; in data set [6] (read-out: IC50), 7.83 nM. The IC50 entry in data set [7] and in data set [8] was “Not Active” each time. For the same compound, the inhibition constant (Ki) entry in data set [2] is “Not Active”; in data set [4], “Not Active”; in data set [6] (read-out: Ki) it was 4.47 nM; in data set [8], “Not Active”.
For `COc1c2occc2cc2ccc(=O)oc12` [METHOXSALEN], the IC50 result in data set [1], in data set [2], in data set [3], in data set [4], in data set [5] and in data set [6] (cho-k1) was “Not Active” in each case. The half-inhibitory concentration (IC50) result in data set [7] and in data set [8] was “Not Active” in each case. Further, the Ki entry in data set [2], in data set [4] and in data set [8] was “Not Active” each time.
Consider `C[C@H]1C[C@@H]2[C@H]([C@@H](O)C[C@@]3(C)[C@H]2CC[C@]3(O)C(=O)CO)[C@@]2(C)C=CC(=O)C=C12` [METHYLPREDNISOLONE], for which the half-maximal inhibitory concentration (IC50) entry in data set [1], in data set [2], in data set [3], in data set [4], in data set [5] and in data set [6] (cho-k1) was “Not Active” each time. The IC50 entry in data set [7] and in data set [8] was “Not Active” each time. Besides, the Ki entry in data set [2], in data set [4] and in data set [8] was “Not Active” throughout.
On to `Cc1cccc(C)c1OCC(C)N` (configuration not stated) [MEXILETINE], for which the half-maximal inhibitory concentration (IC50) result in data set [1], in data set [2], in data set [3], in data set [4], in data set [5] and in data set [6] (cho-k1) was “Not Active” throughout. Besides, the concentration for half-maximal inhibition (IC50) entry in data set [7] and in data set [8] was “Not Active” throughout. Also, the Ki result in data set [2], in data set [4] and in data set [8] was “Not Active” in each case.
Turning to `Nc1cc(N2CCCCC2)nc(N)[n+]1[O-]` [MINOXIDIL], the half-maximal inhibitory concentration (IC50) entry in data set [1], in data set [2], in data set [3], in data set [4], in data set [5] and in data set [6] (cho-k1) was “Not Active” throughout. The IC50 entry in data set [7] and in data set [8] was “Not Active” throughout. The Ki result in data set [2], in data set [4] and in data set [8] was “Not Active” each time.
Take `CO[C@H]1/C=C/O[C@@]2(C)Oc3c(C)c(O)c4c(O)c(c(/C=N/N5CCN(C6CCCC6)CC5)c(O)c4c3C2=O)NC(=O)/C(C)=C\C=C\[C@H](C)[C@H](O)[C@@H](C)[C@@H](O)[C@@H](C)[C@H](OC(C)=O)[C@@H]1C` [RIFAPENTINE]: the IC50 entry in data set [1], in data set [2], in data set [3], in data set [4], in data set [5] and in data set [6] (cho-k1) was “Not Active” each time. Further, the half-maximal inhibitory concentration (IC50) result in data set [7] and in data set [8] was “Not Active” throughout. The Ki entry in data set [2], in data set [4] and in data set [8] was “Not Active” each time.
Take `CCCCOc1cc(CC2CNC(=O)N2)ccc1OC` (configuration not stated) [RO-201724]: the IC50 result in data set [1], in data set [2], in data set [3], in data set [4], in data set [5] and in data set [6] (cho-k1) was “Not Active” in each case. The IC50 entry in data set [7] and in data set [8] was “Not Active” in each case. Further, the Ki entry in data set [2], in data set [4] and in data set [8] was “Not Active” throughout.
`CC[C@@H](C(=O)[C@@H](C)[C@@H](O)[C@H](C)[C@@H]1O[C@@H]([C@@H](CC)C(=O)O)CC[C@@H]1C)[C@H]1O[C@]2(C=C[C@@H](O)[C@]3(CC[C@@](C)([C@H]4CC[C@](O)(CC)[C@H](C)O4)O3)O2)[C@H](C)C[C@@H]1C` [SALINOMYCIN]: the concentration for half-maximal inhibition (IC50) result in data set [1], in data set [2], in data set [3], in data set [4], in data set [5] and in data set [6] (cho-k1) was “Not Active” each time. Further, the 50% inhibitory concentration (IC50) result in data set [7] and in data set [8] was “Not Active” in each case. Moreover, the Ki result in data set [2], in data set [4] and in data set [8] was “Not Active” in each case.
